{"source": "patent US5536623A", "about": "“Method of producing highly water-soluble cyclodextrin complex” (Takeda Chemical Industries, Ltd., priority 1992, dated 1996)", "key": {"[1]": {"assay_type": "physicochemical", "conditions": "water", "description": "(§1) Column: ODS, YMC-Pack A-312 (Yamamura Chemical Laboratories)\n(§2) Mobil phase: water-acetonitrile (1:1 v/v)\n(§3) Detector: Ultra violet detector (wavelength: 210 nm)\nTo a 5 ml aqueous solution containing 500 mg of glucosyl-β-cyclodextrin (hereinafter abbreviated G1[CyD) was added 250 mg of TNP-470, followed by stirring at 25° C. for 8 hours to obtain a solution. The resulting aqueous solution was filtered and lyophilized in accordance with the standard method to yield a powder. To the entire amount of the powder thus obtained, 5 ml of water was added to yield a uniform aqueous solution. Separately, in accordance With the conventional method, 100 mg of G1βCyD was dissolved in 5 ml of water; 250 mg of TNP-470 was added to this solution, followed by stirring at 25° C. for 8 hours. Then, the solution was filtered. The above uniform solution and the filtered solution were assayed for TNP-470 by HPLC method as described in Comparative Example 1. Also, the saturation solubility of TNP-470 alone was determined by HPLC."}, "[2]": {"assay_type": "physicochemical", "conditions": "water", "description": "To a 5 ml aqueous solution containing 1000 mg of maltosyl-β-cyclodextrin (hereinafter abbreviated G2βCyD) was added 250 mg of 6-O-(N-chloroacetylcarbamoyl) fumagillol (hereinafter abbreviated TNP-470), followed by stirring at 25° C. for 8 hours to obtain a solution. The undissolved portion of TNP-470 was filtered out, and the filtrate was placed in a vial and lyophilized in accordance with a conventional method to yield a powder. To the entire amount of the powder thus obtained, 5 ml of water was added to yield a uniform aqueous solution. Separately, in accordance with the conventional method, 110 mg of G2βCyD was dissolved in 5 ml of water; 250 mg of TNP-470 was added to this solution, followed by stirring at 25° C. for 8 hours. Then, the solution was filtered. The above uniform solution and the filtered solution were assayed for TNP-470 by high performance liquid chromatography (HPLC). Also, the saturation solubility of TNP-470 alone was determined by HPLC.\nas §1, §2, §3", "remark": "listed apart in the source"}, "[3]": {"test": "Storage stability at 40° C., TNP-470 quantified by HPLC (Example 6)", "assay_type": "physicochemical", "conditions": "powder, 730 h", "description": "as §1, §2, §3\nTo a 5 ml aqueous solution containing 726 mg of maltosyl-β-cyclodextrin was added 100 mg of TNP-470, followed by stirring at 25° C. for 180 minutes to yield a solution. This aqueous solution was filtered, and 5 ml of the filtrate was placed in a vial and lyophilized to yield a powder. The stability of this powder and that of TNP-470 alone were compared after storage at 40° C. for i month. TNP-470 was quantified by HPLC."}}, "note": "Read-outs that look alike come from different tables or passages of the source."}
{"smiles": "CO[C@@H]1[C@H](OC(=O)NC(=O)CCl)CC[C@]2(CO2)[C@H]1[C@@]1(C)O[C@@H]1CC=C(C)C", "note": "[TNP-470, 6-O-(N-chloroacetylcarbamoyl) fumagillol]", "values": [{"measurement": "Comparison of Solubility (TNP-470)", "setting": "[1]", "value": 1.9, "unit": "mg/mL"}, {"measurement": "Comparison of Solubility (TNP-470)", "setting": "[2]", "value": 1.9, "unit": "mg/mL"}, {"measurement": "Stability, Percent residence (TNP-470)", "setting": "[3]", "value": 68, "unit": "%"}]}
